Drawing on patent US10280166B2, “2-(1H-indazol-3-yl)-3H-imidazo[4,5-B]pyridine and therapeutic uses thereof” (Samumed, LLC, priority 2014, dated 2019), this text covers IC50 for 26 molecules.

For this assay, the system named is Wnt activity (SW480 colon carcinoma cells stably expressing the Sp5-Luc reporter gene). The assay can be described thus: Sp5-Luc reporter gene screening assay for Wnt activity in SW480 cells. Type of assay: cell-based. The settings on record: Homo sapiens, 42 h incubation, luminescence. An excerpt: The screening assay for Wnt activity is described as follows. Reporter cell lines can be generated by stably transducing cancer cell lines (e.g., colon cancer) or primary cells (e.g., IEC-6 intestinal cells) with a lentiviral construct that includes a Wnt-responsive promoter driving expression of the firefly luciferase gene.
SW480 colon carcinoma cells were transduced with a lentiviral vector expressing luciferase with a human Sp5 promoter consisting of a sequence of eight TCF/LEF binding sites. SW480 cells stably expressing the Sp5-Luc reporter gene and a hygromycin resistance gene were selected by treatment with 150 μg/ml of hygromycin for 7 days. These stably transduced SW480 cells were expanded in cell culture and used for all further screening activities. For Sp5-Luc reporter gene assays, the cells were plated at 10,000 cells/well in 96-well plates with growth medium containing 10% fetal calf serum and incubated overnight at 37° C. and 5% CO2. Each compound was dissolved in DMSO as a 10 mM stock in standard j-vials and used to prepare compound source plates in dose-response format with 3-fold serial dilutions and a 10 mM top concentration. Compound transfer from serially diluted source plates to assay plates containing the cells was accomplished using a pintool (Multimek 96, Beckman equipped with V&P Scientific FP1S50H pins) based liquid handling protocol. This protocol used a slotted pin to transfer 50 nl of compound from a source plate well to an assay plate well containing 50 μl of cells in growth medium. […] Control wells received 50 nl of DMSO treatment for normalization and calculating IC50 values. The treated cells were incubated at 37° C. and 5% CO2 for an additional forty-two hours. Following incubation, the growth medium was removed and 50 μl of BrightGlo luminescence reagent (Promega) was added to each well of the 96-well assay plates. The plates were placed on an orbital shaker for 5 min and then luminescence was quantified on the Victor3 (Perkin Elmer) plate reader. Readings were normalized to DMSO only treated cells, and normalized activities were utilized for IC50 calculations using the dose-response log (inhibitor) vs. response—variable slope (four parameters) nonlinear regression feature available in GraphPad Prism 5.0 or 6.0.
(In a reporter assay the amount or activity of a reporter protein is the signal.)

Broadly, the IC50 is the midpoint of a concentration-inhibition curve. Molecule `CC(C)CC(=O)Nc1cncc(-c2ccc3[nH]nc(-c4nc5c(-c6ccc(F)cc6)ccnc5[nH]4)c3c2)c1` [Compound 28, N-(5-(3-(7-(4-Fluorophenyl)-3H-imidazo[4,5-b]pyridin-2-yl)-1H-indazol-5-yl)pyridin-3-yl)-3-methylbutanamide] had an IC50 of 4 nM.
With `CC(C)(C)CC(=O)Nc1cncc(-c2ccc3[nH]nc(-c4nc5c(-c6ccccc6F)ccnc5[nH]4)c3c2)c1` [Compound 68, N-(5-(3-(7-(2-Fluorophenyl)-3H-imidazo[4,5-b]pyridin-2-yl)-1H-indazol-5-yl)pyridin-3-yl)-3,3-dimethylbutanamide] the figure was 52 nM.
The molecule `CC(C)C(=O)Nc1cncc(-c2ccc3[nH]nc(-c4nc5c(-c6cccnc6)ccnc5[nH]4)c3c2)c1` [Compound 87, N-(5-(3-(7-(Pyridin-3-yl)-3H-imidazo[4,5-b]pyridin-2-yl)-1H-indazol-5-yl)pyridin-3-yl)isobutyramide] returned an IC50 of 6.8 nM. Compared with the last molecule, the IC50 is about 7.6-fold lower.
In turn, `O=C(Cc1ccccc1)Nc1cncc(-c2ccc3[nH]nc(-c4nc5c(-c6ccncc6)ccnc5[nH]4)c3c2)c1` [Compound 114, 2-Phenyl-N-(5-(3-(7-(pyridin-4-yl)-3H-imidazo[4,5-b]pyridin-2-yl)-1H-indazol-5-yl)pyridin-3-yl)acetamide] came in with an IC50 of 54 nM. Against the preceding molecule, the IC50 is about 7.9-fold higher.
As for `CCCC(=O)Nc1cncc(-c2ccc3[nH]nc(-c4nc5c(-c6ccncc6)ccnc5[nH]4)c3c2)c1` [Compound 121, N-(5-(3-(7-(Pyridin-4-yl)-3H-imidazo[4,5-b]pyridin-2-yl)-1H-indazol-5-yl)pyridin-3-yl)butyramide], the figure is 35 nM; as for `O=C(Nc1cncc(-c2ccc3[nH]nc(-c4nc5c(-c6ccncc6)ccnc5[nH]4)c3c2)c1)C1CCCCC1` [Compound 126, N-(5-(3-(7-(Pyridin-4-yl)-3H-imidazo[4,5-b]pyridin-2-yl)-1H-indazol-5-yl)pyridin-3-yl)cyclohexanecarboxamide], 30.7 nM.
`CN1CCN(c2ccnc3[nH]c(-c4n[nH]c5ccc(-c6cncc(N)c6)cc45)nc23)CC1` [Compound 211, 5-(3-(7-(4-Methylpiperazin-1-yl)-3H-imidazo[4,5-b]pyridin-2-yl)-1H-indazol-5-yl)pyridin-3-amine]: the IC50 is 66.3 nM. Against the preceding molecule, the IC50 is about 2.2-fold higher.
In turn, `O=C(Cc1ccccc1)Nc1cncc(-c2ccc3[nH]nc(-c4nc5cccnc5[nH]4)c3c2)c1` [Compound 244, N-(5-(3-(3H-Imidazo[4,5-b]pyridin-2-yl)-1H-indazol-5-yl)pyridin-3-yl)-2-phenylacetamide] displayed an IC50 of 352 nM.
On to `CC(C)(C)C(=O)Nc1cncc(-c2ccc3[nH]nc(-c4nc5c(-c6ccsc6)ccnc5[nH]4)c3c2)c1` [Compound 268, N-(5-(3-(7-(Thiophen-3-yl)-3H-imidazo[4,5-b]pyridin-2-yl)-1H-indazol-5-yl)pyridin-3-yl)pivalamide], for which half-maximal inhibition (IC50) required 6.5 nM. This IC50 is about 54-fold lower than that of the molecule before.
The molecule `CN(C)c1cncc(-c2ccc3[nH]nc(-c4nc5c(-c6cccs6)ccnc5[nH]4)c3c2)c1` [Compound 319, N,N-Dimethyl-5-(3-(7-(thiophen-2-yl)-3H-imidazo[4,5-b]pyridin-2-yl)-1H-indazol-5-yl)pyridin-3-amine] registered an IC50 of 62.8 nM.
As for `CC(C)C(=O)Nc1cncc(-c2ccc3[nH]nc(-c4nc5c(-c6cccs6)ccnc5[nH]4)c3c2)c1` [Compound 321, N-(5-(3-(7-(Thiophen-2-yl)-3H-imidazo[4,5-b]pyridin-2-yl)-1H-indazol-5-yl)pyridin-3-yl)isobutyramide], the figure is 41.1 nM.
For `CC(C)CC(=O)Nc1cncc(-c2ccc3[nH]nc(-c4nc5c(-c6ccc(F)s6)ccnc5[nH]4)c3c2)c1` [Compound 340, N-(5-(3-(7-(5-Fluorothiophen-2-yl)-3H-imidazo[4,5-b]pyridin-2-yl)-1H-indazol-5-yl)pyridin-3-yl)-3-methylbutanamide], it took 4.9 nM to reach half-maximal inhibition (IC50). This IC50 is about 8.4-fold lower than that of the molecule before.
With `O=C(Nc1cncc(-c2ccc3[nH]nc(-c4nc5c(-c6ccc(F)s6)ccnc5[nH]4)c3c2)c1)C1CCC1` [Compound 358, N-(5-(3-(7-(5-Fluorothiophen-2-yl)-3H-imidazo[4,5-b]pyridin-2-yl)-1H-indazol-5-yl)pyridin-3-yl)cyclobutanecarboxamide] the figure was 6.9 nM; with `CS(=O)(=O)NCc1cc(F)cc(-c2ccnc3[nH]c(-c4n[nH]c5ccc(-c6cncc(NC(=O)c7ccccc7)c6)cc45)nc23)c1` [Compound 427, N-(5-(3-(7-(3-Fluoro-5-(methylsulfonamidomethyl)phenyl)-3H-imidazo[4,5-b]pyridin-2-yl)-1H-indazol-5-yl)pyridin-3-yl)benzamide], 19.2 nM.
With `CS(=O)(=O)NCc1cc(F)cc(-c2ccnc3[nH]c(-c4n[nH]c5ccc(-c6cncnc6)cc45)nc23)c1` [Compound 442, N-(3-Fluoro-5-(2-(5-(pyrimidin-5-yl)-1H-indazol-3-yl)-3H-imidazo[4,5-b]pyridin-7-yl)benzyl)methanesulfonamide] the figure was 5.8 nM; with `CN(C)Cc1cncc(-c2cc(F)c3[nH]nc(-c4nc5c(-c6cccc(F)c6)ccnc5[nH]4)c3c2)c1` [Compound 481, 1-(5-(7-fluoro-3-(7-(3-fluorophenyl)-3H-imidazo[4,5-b]pyridin-2-yl)-1H-indazol-5-yl)pyridin-3-yl)-N,N-dimethylmethanamine], 155 nM.
With `CN(C)Cc1cncc(-c2cc(F)c3[nH]nc(-c4nc5c(-c6ccsc6)ccnc5[nH]4)c3c2)c1` [Compound 741, 1-(5-(7-Fluoro-3-(7-(thiophen-3-yl)-3H-imidazo[4,5-b]pyridin-2-yl)-1H-indazol-5-yl)pyridin-3-yl)-N,N-dimethylmethanamine], inhibition was half-maximal at 936 nM (IC50).
For the molecule `CN(C)Cc1cncc(-c2cc(F)c3[nH]nc(-c4nc5c(-c6cc(F)cc(CNS(C)(=O)=O)c6)ccnc5[nH]4)c3c2)c1` [Compound 897, N-(3-(2-(5-(5-((Dimethylamino)methyl)pyridin-3-yl)-7-fluoro-1H-indazol-3-yl)-3H-imidazo[4,5-b]pyridin-7-yl)-5-fluorobenzyl)methanesulfonamide], inhibition was half-maximal at 74 nM (IC50).
As for `CN(C)Cc1cncc(-c2cc3c(-c4nc5c(-c6cccc(F)c6)ccnc5[nH]4)n[nH]c3cc2F)c1` [Compound 949, 1-(5-(6-Fluoro-3-(7-(3-fluorophenyl)-3H-imidazo[4,5-b]pyridin-2-yl)-1H-indazol-5-yl)pyridin-3-yl)-N,N-dimethylmethanamine], the figure is > 10000 nM; as for `CN(C)Cc1cncc(-c2cc3c(-c4nc5c(-c6ccsc6)ccnc5[nH]4)n[nH]c3cc2F)c1` [Compound 1209, 1-(5-(6-Fluoro-3-(7-(thiophen-3-yl)-3H-imidazo[4,5-b]pyridin-2-yl)-1H-indazol-5-yl)pyridin-3-yl)-N,N-dimethylmethanamine], > 10000 nM; as for `CN(C)Cc1cncc(-c2cc3c(-c4nc5c(-c6cc(F)cc(CNS(C)(=O)=O)c6)ccnc5[nH]4)n[nH]c3cc2F)c1` [Compound 1365, N-(3-(2-(5-(5-((Dimethylamino)methyl)pyridin-3-yl)-6-fluoro-1H-indazol-3-yl)-3H-imidazo[4,5-b]pyridin-7-yl)-5-fluorobenzyl)methanesulfonamide], 804 nM.
With `CN(C)Cc1cncc(-c2ccc3[nH]nc(-c4nc5c(-c6cccc(F)c6)ccnc5[nH]4)c3c2F)c1` [Compound 1417, 1-(5-(4-Fluoro-3-(7-(3-fluorophenyl)-3H-imidazo[4,5-b]pyridin-2-yl)-1H-indazol-5-yl)pyridin-3-yl)-N,N-dimethylmethanamine] the figure was 923 nM; with `CN(C)Cc1cncc(-c2ccc3[nH]nc(-c4nc5c(-c6ccsc6)ccnc5[nH]4)c3c2F)c1` [Compound 1677, 1-(5-(4-Fluoro-3-(7-(thiophen-3-yl)-3H-imidazo[4,5-b]pyridin-2-yl)-1H-indazol-5-yl)pyridin-3-yl)-N,N-dimethylmethanamine], 673 nM.
Consider `CN(C)Cc1cncc(-c2ccc3[nH]nc(-c4nc5c(-c6cc(F)cc(CNS(C)(=O)=O)c6)ccnc5[nH]4)c3c2F)c1` [Compound 1833, N-(3-(2-(5-(5-((Dimethylamino)methyl)pyridin-3-yl)-4-fluoro-1H-indazol-3-yl)-3H-imidazo[4,5-b]pyridin-7-yl)-5-fluorobenzyl)methanesulfonamide], for which the IC50 was 773 nM.
Regarding `Fc1cccc(-c2ccnc3[nH]c(-c4n[nH]c5ccc(-c6cncc(OCCN7CCCC7)c6)cc45)nc23)c1` [Compound 1882, 7-(3-Fluorophenyl)-2-(5-(5-(2-(pyrrolidin-1-yl)ethoxy)pyridin-3-yl)-1H-indazol-3-yl)-3H-imidazo[4,5-b]pyridine], the IC50 came out at 4140 nM.
For `Fc1cccc(-c2ccnc3[nH]c(-c4n[nH]c5ccc(-c6cncc(OCc7ccccc7)c6)cc45)nc23)c1` [Compound 1886, 2-(5-(5-(Benzyloxy)pyridin-3-yl)-1H-indazol-3-yl)-7-(3-fluorophenyl)-3H-imidazo[4,5-b]pyridine], the IC50 was > 10000 nM.
